The test is described as follows: Inhibition of jack bean alpha-mannosidase. More on the design: species or system Canavalia ensiformis.
Usually Ki stands for a dissociation constant, usually derived from enzyme kinetics or from competition with a known ligand. In turn, `O=S1(=O)C[C@@H]2O[C@H]1[C@@H](O)[C@H](O)[C@@H]2O` had a Ki of 350 nM. For the compound `[O-][S+]1C[C@@H]2O[C@H]1[C@@H](O)[C@H](O)[C@@H]2O` (stereo partly drawn), the affinity, expressed as Ki, was 385 nM. `OC1[C@H](O)C2CSC(O2)[C@H]1O` (single isomer, unassigned) [THIOLEVOMANNOSAN] came in with a Ki of 1380 nM.

(Values after ChEMBL document CHEMBL1143740, “Conformationally locked thiosugars as potent alpha-mannosidase inhibitors: synthesis, biochemical and docking studies” (Bioorg Med Chem, 2007).)
